From ChEMBL document CHEMBL1201862, “PubChem BioAssay data set” (2004)
Activity calls are given as the source filed them.

Assays:
[1] = target: Neurotensin receptor type 1 (Homo sapiens, UniProt P30989); format: functional;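 note: Image-based confirmatory dose-response assay measuring agonist activity at NTR1; NTR1-expressing U2OS osteosarcoma cells imaged for beta-arrestin GFP spot formation; agonist potency where compounds increase beta-arrestin recruitment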
[2] = target: Hexokinase HKDC1 (Homo sapiens, UniProt Q2TB90); test: HKDC1 hexokinase inhibitors, dose response, biochemical, W721R variant (AID 504729); format: functional
[3] = target: T1, Replicative DNA helicase DnaB (Mycobacterium tuberculosis, UniProt P9WMR3); test: DnaB intein splicing inhibitors, dose response, biochemical, cell-free fluorescence (AID 449749); format: functional
T1 sequence (P9WMR3 whole entry): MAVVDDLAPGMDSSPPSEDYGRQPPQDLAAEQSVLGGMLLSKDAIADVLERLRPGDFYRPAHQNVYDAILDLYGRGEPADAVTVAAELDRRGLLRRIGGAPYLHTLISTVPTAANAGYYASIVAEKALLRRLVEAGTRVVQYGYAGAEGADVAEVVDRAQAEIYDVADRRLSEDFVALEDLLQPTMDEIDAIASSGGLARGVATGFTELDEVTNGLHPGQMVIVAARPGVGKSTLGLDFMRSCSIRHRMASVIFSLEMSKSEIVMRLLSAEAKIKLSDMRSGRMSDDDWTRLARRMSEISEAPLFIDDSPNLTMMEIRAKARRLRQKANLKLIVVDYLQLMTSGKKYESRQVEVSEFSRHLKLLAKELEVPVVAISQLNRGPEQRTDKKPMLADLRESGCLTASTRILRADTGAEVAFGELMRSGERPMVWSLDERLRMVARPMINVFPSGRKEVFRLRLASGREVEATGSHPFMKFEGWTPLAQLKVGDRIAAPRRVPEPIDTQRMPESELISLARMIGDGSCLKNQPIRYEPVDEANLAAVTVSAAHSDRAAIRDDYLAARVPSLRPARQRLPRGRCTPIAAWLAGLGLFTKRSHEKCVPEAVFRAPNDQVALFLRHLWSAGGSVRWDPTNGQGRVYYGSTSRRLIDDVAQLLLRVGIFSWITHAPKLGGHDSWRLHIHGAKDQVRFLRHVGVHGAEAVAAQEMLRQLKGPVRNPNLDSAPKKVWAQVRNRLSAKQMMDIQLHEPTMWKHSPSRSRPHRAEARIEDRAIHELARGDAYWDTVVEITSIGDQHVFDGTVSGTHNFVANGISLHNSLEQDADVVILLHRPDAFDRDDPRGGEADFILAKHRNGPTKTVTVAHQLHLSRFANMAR

[4] = target: T2, Protein RecA (Mycobacterium tuberculosis, UniProt P9WHJ3); test: Fluorescence Cell-Free Homogeneous Dose Retest to Identify Inhibitors of RecA-Intein Splicing Activity. [Related pubchem assays (depositor defined):AID2097, AID2223, AID489010, AID492950]; format: functional
T2 sequence (P9WHJ3 whole entry): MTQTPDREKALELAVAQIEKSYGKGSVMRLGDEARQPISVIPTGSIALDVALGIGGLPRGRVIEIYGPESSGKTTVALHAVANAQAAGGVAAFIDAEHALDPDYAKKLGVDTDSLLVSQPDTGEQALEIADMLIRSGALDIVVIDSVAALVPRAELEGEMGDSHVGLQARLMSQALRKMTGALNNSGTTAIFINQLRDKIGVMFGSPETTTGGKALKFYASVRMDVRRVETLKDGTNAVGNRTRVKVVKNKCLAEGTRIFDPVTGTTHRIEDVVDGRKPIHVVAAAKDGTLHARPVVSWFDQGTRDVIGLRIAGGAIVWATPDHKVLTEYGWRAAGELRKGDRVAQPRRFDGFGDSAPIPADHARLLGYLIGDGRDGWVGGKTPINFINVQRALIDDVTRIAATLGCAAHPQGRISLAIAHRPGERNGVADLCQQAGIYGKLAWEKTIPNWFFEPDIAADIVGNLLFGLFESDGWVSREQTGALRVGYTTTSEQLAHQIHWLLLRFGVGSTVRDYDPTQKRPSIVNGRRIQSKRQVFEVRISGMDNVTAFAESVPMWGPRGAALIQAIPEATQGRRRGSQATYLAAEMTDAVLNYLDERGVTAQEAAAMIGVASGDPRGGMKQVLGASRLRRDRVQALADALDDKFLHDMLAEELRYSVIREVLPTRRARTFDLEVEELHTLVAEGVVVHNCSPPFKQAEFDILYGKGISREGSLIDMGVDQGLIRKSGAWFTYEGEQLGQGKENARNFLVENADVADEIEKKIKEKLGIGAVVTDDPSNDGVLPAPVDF

[5] = target: Acyl-homoserine lactone acylase PvdQ (Pseudomonas aeruginosa (strain LESB58), UniProt Q9I194); test: P. aeruginosa PvdQ acylase inhibitors, dose response, biochemical, fluorescence, plate reader and imaging, cherry-picks (AID 493231)
[6] = target: Dual specificity protein phosphatase 3 (Homo sapiens, UniProt P51452); test: VHR1 inhibitor Ki determination, SAR follow-up, biochemical, colorimetric (AID 2004)
Dual specificity protein phosphatase 3, sequence (P51452 whole entry): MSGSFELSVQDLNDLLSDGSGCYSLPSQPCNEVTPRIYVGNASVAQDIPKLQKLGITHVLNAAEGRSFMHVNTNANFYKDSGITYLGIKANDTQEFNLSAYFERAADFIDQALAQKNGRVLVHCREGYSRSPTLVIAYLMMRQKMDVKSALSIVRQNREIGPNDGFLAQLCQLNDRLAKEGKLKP

[7] = target: Cyclin-dependent kinase 5/CDK5 activator 1 (Homo sapiens, UniProt Q00535); test: CDK5/p35 kinase inhibitors, dose response, biochemical, cherry-picked samples, set 2 (AID 504545)
[8] = target: SWI/SNF-related matrix-associated actin-dependent regulator of chromatin subfamily A member 2 (Homo sapiens, UniProt P51531); test: Luminescence-based cell-based high throughput dose response assay to identify activators of the function of SWI/SNF related, matrix associated, actin dependent regulator of chromatin, subfamily a, member 2 (SMARCA2, BRM).; format: functional
[9] = Counterscreen for activators of the function of SWI/SNF related, matrix associated, actin dependent regulator of chromatin, subfamily a, member 2 (SMARCA2, BRM): Luminescence-based cell-based high throughput dose response assay to identify non-selective compounds using the VP16 reporter assay.; format: functional
[10] = target: Cytochrome P450 2D6 (Homo sapiens, UniProt P10635); test: qHTS Assay for Inhibitors and Substrates of Cytochrome P450 2D6. [Related pubchem assays: 410 ]; format: ADME; settings: read-out: Potency
[11] = target: Cytochrome P450 3A4 (Homo sapiens, UniProt P08684); settings: Potency;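 note: confirmatory qHTS run detecting inhibitors and substrates of CYP3A4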
Cytochrome P450 3A4, sequence (P08684 whole entry): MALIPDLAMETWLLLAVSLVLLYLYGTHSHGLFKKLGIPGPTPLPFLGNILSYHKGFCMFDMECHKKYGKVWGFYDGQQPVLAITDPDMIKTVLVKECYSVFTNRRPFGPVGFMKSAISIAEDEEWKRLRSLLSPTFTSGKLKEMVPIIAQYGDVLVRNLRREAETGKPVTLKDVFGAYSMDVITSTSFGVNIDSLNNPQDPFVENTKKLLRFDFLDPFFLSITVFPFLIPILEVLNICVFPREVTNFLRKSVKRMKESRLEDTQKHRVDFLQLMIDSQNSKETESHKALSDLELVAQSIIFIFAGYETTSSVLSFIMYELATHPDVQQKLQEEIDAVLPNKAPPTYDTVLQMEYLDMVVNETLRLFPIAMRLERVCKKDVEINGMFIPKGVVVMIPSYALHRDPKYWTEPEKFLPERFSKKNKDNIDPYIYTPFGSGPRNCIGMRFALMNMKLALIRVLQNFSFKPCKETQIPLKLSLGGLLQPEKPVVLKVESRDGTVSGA

[12] = target: Cytochrome P450 2C9 (Homo sapiens, UniProt P11712); settings: Potency
[13] = target: Lysosomal acid glucosylceramidase (Homo sapiens, UniProt P04062); test: Dose response cell-based high throughput screening assay to identify enhancers of beta-glucosidase activity. [Related pubchem assays: 784 ]; format: functional
[14] = inhibitors of firefly luciferase expression or activity, dose response, H4 neuroglioma cells, luminescence (AID 1990); format: functional, cell-based
[15] = Luminescence Cell-Based Dose Response HTS to Identify Inhibitors of 5'UTR Stem-Loop Driven Prion Protein mRNA Translation in H4 Neuroglioblastoma Cells. [Related pubchem assays: 1827 (Project Summary), 1813 (Primary HTS)]; format: functional
[16] = inhibitors of SNCA 5'UTR-driven reporter translation, confirmation, H4 neuroglioma cells, luminescence (AID 1988); format: functional, cell-based
[17] = target: Scavenger receptor class B member 1 (Mus musculus, UniProt Q61009); test: inhibitors of SR-BI mediated HDL lipid uptake, dose response, ldlA[mSR-BI] cells, fluorescence, cherry pick (AID 493194); format: functional, cell-based;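 note: cellular uptake of fluorescent DiI-labeled HDL measured as cell fluorescence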
[18] = system: Vero; test: cells; format: functional, cell-based; settings: Chlorocebus sabaeus
[19] = target: Vasopressin V1a receptor (Homo sapiens, UniProt P37288); test: Counterscreen for Oxytocin Receptor (OXTR) agonists: Fluorescence-based cell-based high throughput dose response assay to identify agonists of the vasopressin 1 receptor (V1R). [Related pubchem assays: 2435 (Primary screen (OXTR agonists in singlicate)), 434991 (Counterscreen (V1R agonists in triplicate)), 2482 (Summary (OXTR agonists)) …; format: functional
Vasopressin V1a receptor, sequence (P37288 whole entry): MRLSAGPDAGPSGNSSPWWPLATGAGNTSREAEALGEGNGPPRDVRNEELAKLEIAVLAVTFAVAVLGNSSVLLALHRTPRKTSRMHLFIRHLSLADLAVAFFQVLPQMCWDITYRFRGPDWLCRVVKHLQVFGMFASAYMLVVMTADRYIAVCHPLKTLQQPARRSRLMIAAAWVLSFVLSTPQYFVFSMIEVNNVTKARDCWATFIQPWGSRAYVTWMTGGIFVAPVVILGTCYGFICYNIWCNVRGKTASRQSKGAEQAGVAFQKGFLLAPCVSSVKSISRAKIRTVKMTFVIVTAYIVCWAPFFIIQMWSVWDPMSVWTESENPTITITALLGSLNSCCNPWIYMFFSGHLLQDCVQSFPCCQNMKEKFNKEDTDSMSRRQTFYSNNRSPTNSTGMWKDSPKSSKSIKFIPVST

[20] = target: Oxytocin receptor (Homo sapiens, UniProt P30559); test: Fluorescence-based cell-based high throughput dose response assay for agonists of the Oxytocin Receptor (OXTR). [Related pubchem assays: 2435 (Primary screen (OXTR agonists in singlicate)), 434991 (Counterscreen (V1R agonists in triplicate)), 2482 (Summary (OXTR agonists)), 434963 (Confirmation screen (OXTR agonists in triplicate))]; format: functional
[21] = target: T3, Corticotropin-releasing factor receptor 2/Corticotropin-releasing factor-binding protein (Homo sapiens, UniProt P24387+Q13324); test: activators of CRF receptor 2 with binding protein – uHTS hits, confirmation (AID 602473); format: functional; settings: read-out: EC50_Mean
T3 sequence (Q13324 whole entry): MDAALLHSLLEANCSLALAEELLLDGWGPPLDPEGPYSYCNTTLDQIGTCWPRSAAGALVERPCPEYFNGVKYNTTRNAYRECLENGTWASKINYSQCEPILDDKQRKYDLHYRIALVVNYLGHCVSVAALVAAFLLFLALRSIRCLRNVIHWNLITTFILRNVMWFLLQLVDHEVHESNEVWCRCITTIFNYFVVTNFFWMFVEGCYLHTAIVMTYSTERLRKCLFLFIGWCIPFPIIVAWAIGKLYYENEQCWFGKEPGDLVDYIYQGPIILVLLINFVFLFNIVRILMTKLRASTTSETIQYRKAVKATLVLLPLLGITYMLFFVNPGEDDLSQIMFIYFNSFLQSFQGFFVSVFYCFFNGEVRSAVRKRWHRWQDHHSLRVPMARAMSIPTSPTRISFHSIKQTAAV
T3 sequence (P24387 whole entry): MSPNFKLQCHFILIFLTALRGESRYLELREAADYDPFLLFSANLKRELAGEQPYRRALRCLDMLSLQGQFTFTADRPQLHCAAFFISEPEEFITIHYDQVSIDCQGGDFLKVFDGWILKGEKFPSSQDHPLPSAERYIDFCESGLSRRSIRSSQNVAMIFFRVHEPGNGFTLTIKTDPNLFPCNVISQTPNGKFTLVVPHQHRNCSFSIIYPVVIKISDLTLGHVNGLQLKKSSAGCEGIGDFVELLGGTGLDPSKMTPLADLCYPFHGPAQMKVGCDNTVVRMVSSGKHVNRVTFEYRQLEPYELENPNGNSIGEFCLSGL

[22] = system: Vibrio harveyi; test: Quorum Sensing, LuxS, LuxPQ Measured in Microorganism System Using Plate Reader - 2035-01_Inhibitor_DoseNoFile_DryPowder_Activity. [Related pubchem assays (depositor defined):AID2106]; format: functional, organism-based
[23] = target: T4, Voltage-gated N-type calcium channel alpha-1B subunit/Amyloid beta A4 precursor protein-binding family A member 1 (Homo sapiens, UniProt Q00975+Q02410); test: disruptors of Mint-PDZ/N-type channel peptide interaction – biochemical, HTRF, set 2, SAR follow-up (AID 434980); format: functional
T4 sequence (Q00975 whole entry): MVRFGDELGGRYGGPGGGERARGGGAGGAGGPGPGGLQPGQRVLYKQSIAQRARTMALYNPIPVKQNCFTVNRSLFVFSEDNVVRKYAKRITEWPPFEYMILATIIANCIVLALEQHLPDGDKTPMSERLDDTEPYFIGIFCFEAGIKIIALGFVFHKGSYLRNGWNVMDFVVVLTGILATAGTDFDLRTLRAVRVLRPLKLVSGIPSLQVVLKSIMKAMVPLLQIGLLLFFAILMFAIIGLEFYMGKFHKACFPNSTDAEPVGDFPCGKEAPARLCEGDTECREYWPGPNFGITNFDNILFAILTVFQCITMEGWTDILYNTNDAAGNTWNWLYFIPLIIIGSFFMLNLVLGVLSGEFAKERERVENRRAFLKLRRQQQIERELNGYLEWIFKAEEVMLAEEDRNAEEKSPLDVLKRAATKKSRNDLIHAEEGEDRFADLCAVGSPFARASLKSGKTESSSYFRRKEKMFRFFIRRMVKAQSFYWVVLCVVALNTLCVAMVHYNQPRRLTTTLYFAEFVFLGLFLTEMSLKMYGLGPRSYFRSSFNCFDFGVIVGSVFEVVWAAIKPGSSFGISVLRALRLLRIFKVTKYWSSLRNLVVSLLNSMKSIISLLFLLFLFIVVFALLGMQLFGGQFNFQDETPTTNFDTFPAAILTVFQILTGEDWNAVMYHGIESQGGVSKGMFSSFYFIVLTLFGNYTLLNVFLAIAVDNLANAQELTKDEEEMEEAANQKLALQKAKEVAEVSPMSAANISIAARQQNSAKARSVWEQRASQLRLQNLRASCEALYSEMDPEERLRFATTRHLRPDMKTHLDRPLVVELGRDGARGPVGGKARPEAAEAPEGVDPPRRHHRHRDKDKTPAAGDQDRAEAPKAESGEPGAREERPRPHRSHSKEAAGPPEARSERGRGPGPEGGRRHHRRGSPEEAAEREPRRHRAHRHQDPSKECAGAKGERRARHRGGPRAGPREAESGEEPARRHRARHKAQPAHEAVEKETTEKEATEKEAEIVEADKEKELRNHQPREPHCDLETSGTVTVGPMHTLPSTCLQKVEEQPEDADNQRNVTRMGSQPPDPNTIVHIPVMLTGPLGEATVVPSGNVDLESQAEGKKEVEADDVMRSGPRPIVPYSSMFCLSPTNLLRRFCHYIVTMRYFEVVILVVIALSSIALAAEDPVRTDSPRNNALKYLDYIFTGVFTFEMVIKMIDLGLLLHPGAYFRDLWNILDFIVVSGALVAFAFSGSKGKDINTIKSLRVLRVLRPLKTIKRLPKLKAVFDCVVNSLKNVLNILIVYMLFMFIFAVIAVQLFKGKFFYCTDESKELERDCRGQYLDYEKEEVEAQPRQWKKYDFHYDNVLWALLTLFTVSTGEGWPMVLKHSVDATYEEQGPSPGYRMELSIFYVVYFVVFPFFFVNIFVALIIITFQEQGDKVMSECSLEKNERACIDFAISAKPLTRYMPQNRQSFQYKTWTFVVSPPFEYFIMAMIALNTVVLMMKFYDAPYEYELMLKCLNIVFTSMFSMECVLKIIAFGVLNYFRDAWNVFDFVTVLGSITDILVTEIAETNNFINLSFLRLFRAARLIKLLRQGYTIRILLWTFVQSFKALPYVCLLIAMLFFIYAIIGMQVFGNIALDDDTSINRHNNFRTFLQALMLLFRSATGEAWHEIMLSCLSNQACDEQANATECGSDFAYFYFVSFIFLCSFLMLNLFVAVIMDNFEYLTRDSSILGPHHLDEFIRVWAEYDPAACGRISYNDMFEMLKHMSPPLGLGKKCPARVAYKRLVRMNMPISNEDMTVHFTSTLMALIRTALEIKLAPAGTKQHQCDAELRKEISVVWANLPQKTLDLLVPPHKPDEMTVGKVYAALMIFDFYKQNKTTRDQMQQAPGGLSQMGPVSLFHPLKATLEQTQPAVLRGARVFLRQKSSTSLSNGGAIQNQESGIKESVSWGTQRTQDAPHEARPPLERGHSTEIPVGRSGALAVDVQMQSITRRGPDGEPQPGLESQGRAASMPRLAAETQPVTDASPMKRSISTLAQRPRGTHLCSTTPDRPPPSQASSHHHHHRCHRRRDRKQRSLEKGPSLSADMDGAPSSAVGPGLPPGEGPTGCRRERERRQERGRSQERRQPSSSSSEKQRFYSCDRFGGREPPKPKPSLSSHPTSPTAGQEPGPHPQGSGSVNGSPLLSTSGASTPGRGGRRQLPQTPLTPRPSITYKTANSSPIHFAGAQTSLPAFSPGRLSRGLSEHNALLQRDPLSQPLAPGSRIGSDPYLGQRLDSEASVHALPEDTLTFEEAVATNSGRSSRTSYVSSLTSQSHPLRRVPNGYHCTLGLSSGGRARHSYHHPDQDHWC
T4 sequence (Q02410 whole entry): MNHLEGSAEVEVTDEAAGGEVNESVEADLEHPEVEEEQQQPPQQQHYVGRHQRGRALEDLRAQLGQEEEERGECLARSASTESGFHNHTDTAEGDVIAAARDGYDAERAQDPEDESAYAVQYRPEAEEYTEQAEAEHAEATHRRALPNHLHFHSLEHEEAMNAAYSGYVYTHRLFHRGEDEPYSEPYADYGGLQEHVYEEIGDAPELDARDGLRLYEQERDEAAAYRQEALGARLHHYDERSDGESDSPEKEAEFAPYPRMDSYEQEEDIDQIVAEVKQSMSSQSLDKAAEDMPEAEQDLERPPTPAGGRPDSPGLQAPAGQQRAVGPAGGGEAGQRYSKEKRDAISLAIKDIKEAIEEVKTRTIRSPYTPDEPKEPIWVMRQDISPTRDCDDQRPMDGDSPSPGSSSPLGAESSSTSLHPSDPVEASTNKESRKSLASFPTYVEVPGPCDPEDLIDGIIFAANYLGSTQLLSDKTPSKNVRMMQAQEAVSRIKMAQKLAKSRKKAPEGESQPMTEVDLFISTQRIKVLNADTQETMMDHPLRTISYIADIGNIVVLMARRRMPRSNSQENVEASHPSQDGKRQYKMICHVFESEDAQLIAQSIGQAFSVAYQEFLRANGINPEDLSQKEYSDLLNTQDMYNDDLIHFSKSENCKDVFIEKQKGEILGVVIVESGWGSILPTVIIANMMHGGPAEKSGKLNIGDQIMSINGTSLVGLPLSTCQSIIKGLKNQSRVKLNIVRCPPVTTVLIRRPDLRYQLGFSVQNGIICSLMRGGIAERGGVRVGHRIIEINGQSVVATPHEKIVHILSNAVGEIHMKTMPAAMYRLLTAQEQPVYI

[24] = target: T4, Voltage-gated N-type calcium channel alpha-1B subunit/Amyloid beta A4 precursor protein-binding family A member 1; test: disruptors of Mint-PDZ/N-type channel peptide interaction – biochemical, HTRF, SAR follow-up (AID 2489); format: functional
[25] = target: Wee1-like protein kinase (Homo sapiens, UniProt P30291); test: G2/M cell cycle arrest in HeLa, late-stage follow-up, mechanism study for Wee1 degradation inhibitor project, FACS, panel member Wee1 Degradation (AID 2088)
[26] = target: G2/mitotic-specific cyclin-B1 (Homo sapiens, UniProt P14635); test: G2/M cell cycle arrest in HeLa, late-stage follow-up, mechanism study for Wee1 degradation inhibitor project, FACS, panel member Cyclin B Degradation (AID 2088)
G2/mitotic-specific cyclin-B1, sequence (P14635 whole entry): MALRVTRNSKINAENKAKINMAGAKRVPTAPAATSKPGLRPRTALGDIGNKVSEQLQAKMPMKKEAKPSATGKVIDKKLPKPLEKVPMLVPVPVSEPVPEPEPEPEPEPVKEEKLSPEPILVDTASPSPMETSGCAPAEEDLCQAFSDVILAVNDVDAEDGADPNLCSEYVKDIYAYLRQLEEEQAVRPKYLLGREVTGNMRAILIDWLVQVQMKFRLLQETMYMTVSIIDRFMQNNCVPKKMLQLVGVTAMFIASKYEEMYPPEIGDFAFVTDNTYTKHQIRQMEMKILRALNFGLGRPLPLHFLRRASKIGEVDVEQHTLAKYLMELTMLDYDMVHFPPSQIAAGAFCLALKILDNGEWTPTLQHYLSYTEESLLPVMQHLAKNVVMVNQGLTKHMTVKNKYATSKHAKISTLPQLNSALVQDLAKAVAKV

[27] = target: Melanin-concentrating hormone receptor 1 (Homo sapiens, UniProt Q99705); test: Late-stage fluorescence-based counterscreen for antagonists of the G-protein coupled receptor 7 (GPR7): cell-based dose response assay to identify antagonists of the melanin-concentrating hormone receptor 1 (MCHR1). [Related pubchem assays (depositor defined):AID1861, AID1880, AID1952, AID2148, AID2251, AID2257, AID485339]; format: functional;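 note: stimulated with 30 nM MCH peptide agonist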
Melanin-concentrating hormone receptor 1, sequence (Q99705 whole entry): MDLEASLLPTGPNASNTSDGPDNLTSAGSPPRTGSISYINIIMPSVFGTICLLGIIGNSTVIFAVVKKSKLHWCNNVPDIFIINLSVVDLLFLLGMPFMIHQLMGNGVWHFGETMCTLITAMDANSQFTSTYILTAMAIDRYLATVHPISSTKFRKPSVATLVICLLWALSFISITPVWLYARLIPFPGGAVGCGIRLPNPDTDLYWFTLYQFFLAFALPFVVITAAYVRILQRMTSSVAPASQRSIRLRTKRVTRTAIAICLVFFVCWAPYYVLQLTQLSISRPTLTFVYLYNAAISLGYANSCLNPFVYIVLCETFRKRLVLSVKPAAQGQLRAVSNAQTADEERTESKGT

## Cc1cc(C)n(-c2nc(N(c3ccccc3)c3ccccc3)nc(-n3nc(C)cc3C)n2)n1
[1]
  EC50: 6.21 µM (active)

## O=c1c2ccccc2nc(/C=C/c2cccnc2)n1CCc1ccccc1
[2]
  IC50: 17.5 µM (active)
[3]
  AC50: 60.6 µM (active)
[4]
  EC50: 12 µM (active)

## CCOC(=O)CC(C#N)c1cn(C)c2ccccc12 (configuration not stated)
[5]
  AC50: 7.18 µM (active)

## COC(=O)c1ccc(COc2cc3oc(=O)cc(-c4ccccc4)c3cc2Cl)cc1
[6]
  Ki: 28.9 µM (inactive)

## CC(C)[C@H](CO)Nc1nc(NCc2ccc(S(N)(=O)=O)cc2)c2ncn(C(C)C)c2n1
[7]
  AC50: 1.93 µM (active)
[8]
  EC50: > 91.2 µM (inactive)
[9]
  EC50: > 91.2 µM (inactive)

## CCCCCCCC1=Cc2ccccc2C(CC(C)=O)N1C(=O)OC (configuration not stated)
[10]
  AC50: 3.98 µM (inconclusive)
[11]
  AC50: 3.16 µM (inconclusive)
[12]
  AC50: 6.31 µM (inconclusive)

## Cc1cc(-c2nnc(SCc3cccnc3)o2)no1
[13]
  EC50: > 50 µM (not active)

## Cc1cc(SC(C)C(=O)Nc2ncc(Cl)cc2Cl)nc2ccccc12 (configuration not stated)
[14]
  EC50: > 120 µM (not active)
[15]
  EC50: > 120 µM (not active)
[16]
  EC50: 15.1 µM (active)
[17]
  AC50: 633 nM (active)
[18]
  IC50: 19.5 µM (active)

## CC(=O)c1c(C)[nH]c(C(=O)CN2C(=O)NC(C)(c3ccc(C)cc3)C2=O)c1C (configuration not stated)
[19]
  EC50: > 29.9 µM (not active)
[20]
  EC50: > 29.9 µM (not active)
[21]
  EC50: 11.6 µM (active)

## CN(C)S(=O)(=O)c1ccc(NC(=S)NC(=O)Cc2ccccc2)cc1
[22]
  AC50: 66.4 µM (active)

## COc1ccccc1CNC(=O)COC(=O)c1cccc2ccccc12
[23]
  IC50: 19.4 µM (active)
[24]
  IC50: > 56.8 µM (inactive)

## Cc1cc(NC(=O)c2cccc(F)c2)n(-c2nc(=O)cc(C)[nH]2)n1
[25]
  EC50: > 49.7 µM (inactive)
[26]
  EC50: > 49.7 µM (inactive)

## CCc1ccc(-n2ncc(Cl)c(Oc3ccc(OC)cc3)c2=O)cc1
[27]
  IC50: 3.9 µM (active)
